From ChEMBL document CHEMBL5537182, “Small Molecule Benzothiophene with In Vivo Efficacy in a Mouse Model of Drug-Resistant Enterococcus faecium Infection” (J Med Chem, 2024)
In brackets after ≈: the same amount, converted by molar mass. Activity calls are given as the source filed them. The calls are words filed in the database; no cut-off is given here.

What was measured:
[1] = Cytotoxicity against African green monkey Vero cells assessed as cell viability incubated for 48 hrs by MTT assay; format: toxicity, cell-based; details: chlorocebus sabaeus
[2] = system: Enterococcus faecium; test: Anti-bacterial activity against drug-resistant Enterococcus faecium NCTC 7171 assessed as invisible pellets in media measured after overnight incubation; format: functional
[3] = system: Enterococcus faecium; test: Anti-bacterial activity against vancomycin-resistant Enterococcus faecium EN 2966 assessed as invisible pellets in media measured after overnight incubation; format: functional
[4] = system: Enterococcus faecium; test: In vivo anti-bacterial activity against vancomycin-resistant Enterococcus faecium EN 2966 infected immunocompetent mouse model of acute peritonitis-sepsis assessed as protection at 100 mg/kg, sc measured upto 3 days; format: functional, organism-based; details: time <= 3.0 day
[5] = Toxicity in CD-1 mouse assessed as tolerability at 300 mg/kg, po; format: organism-based; details: in vivo
[6] = Plasma stability in mouse plasma assessed as remaining at 5 uM measured after 5 hrs by LC-MS/MS analysis; format: ADME, cell-free
[7] = molecular target: T1, Cytochrome P450 1A2 (Homo sapiens, UniProt P05177); test: Inhibition of CYP1A2 in human liver microsomes using phenacetin as substrate; format: ADME, Microsome
T1 sequence (P05177 whole entry): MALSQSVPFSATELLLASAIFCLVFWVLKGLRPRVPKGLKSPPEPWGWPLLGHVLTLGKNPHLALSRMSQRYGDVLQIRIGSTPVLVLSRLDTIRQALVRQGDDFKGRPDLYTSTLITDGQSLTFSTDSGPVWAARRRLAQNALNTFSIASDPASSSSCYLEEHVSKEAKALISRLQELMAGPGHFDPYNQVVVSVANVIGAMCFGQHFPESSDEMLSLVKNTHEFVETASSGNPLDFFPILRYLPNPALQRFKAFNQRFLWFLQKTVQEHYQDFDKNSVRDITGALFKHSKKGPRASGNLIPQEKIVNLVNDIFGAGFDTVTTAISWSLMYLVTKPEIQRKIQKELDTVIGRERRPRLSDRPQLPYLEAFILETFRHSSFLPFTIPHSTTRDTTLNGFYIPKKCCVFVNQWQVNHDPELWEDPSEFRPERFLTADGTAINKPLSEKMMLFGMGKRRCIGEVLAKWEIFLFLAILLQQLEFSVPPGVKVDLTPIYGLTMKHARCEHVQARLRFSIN

[8] = system: Enterococcus faecium; test: In vivo anti-bacterial activity against vancomycin-resistant Enterococcus faecium EN 2966 infected immunocompetent mouse model of acute peritonitis-sepsis assessed as protection at 150 mg/kg, po measured upto 3 days; format: functional, organism-based; details: time <= 3.0 day
[9] = Plasma protein binding in mouse at 5 uM measured after 5 hrs by LC-MS/MS analysis; format: ADME, cell-free; details: read-out: PPB
[10] = Oral bioavailability in CD-1 mouse at 25 mg/kg by LC-MS/MS analysis; format: ADME, organism-based; details: in vivo
[11] = Kinetic solubility of the compound in aqueous buffer at pH 7.4 measured after 4 hrs by LC-MS/MS analysis; format: physicochemical; details: read-out: Kinetic_solubility
[12] = Plasma stability in human plasma assessed as remaining at 5 uM measured after 5 hrs by LC-MS/MS analysis; format: ADME, cell-free
[13] = Plasma protein binding in human at 5 uM measured after 5 hrs by LC-MS/MS analysis; format: ADME, cell-free; details: read-out: PPB (converted)
[14] = Metabolic stability in mouse liver microsomes assessed as half life by LC-MS/MS analysis; format: ADME, Microsome
[15] = molecular target: Cytochrome P450 2C19 (Homo sapiens, UniProt P33261); test: Inhibition of CYP2C19 in human liver microsomes using omeprazole as substrate; format: ADME, Microsome
Sequence of Cytochrome P450 2C19 (P33261 whole entry): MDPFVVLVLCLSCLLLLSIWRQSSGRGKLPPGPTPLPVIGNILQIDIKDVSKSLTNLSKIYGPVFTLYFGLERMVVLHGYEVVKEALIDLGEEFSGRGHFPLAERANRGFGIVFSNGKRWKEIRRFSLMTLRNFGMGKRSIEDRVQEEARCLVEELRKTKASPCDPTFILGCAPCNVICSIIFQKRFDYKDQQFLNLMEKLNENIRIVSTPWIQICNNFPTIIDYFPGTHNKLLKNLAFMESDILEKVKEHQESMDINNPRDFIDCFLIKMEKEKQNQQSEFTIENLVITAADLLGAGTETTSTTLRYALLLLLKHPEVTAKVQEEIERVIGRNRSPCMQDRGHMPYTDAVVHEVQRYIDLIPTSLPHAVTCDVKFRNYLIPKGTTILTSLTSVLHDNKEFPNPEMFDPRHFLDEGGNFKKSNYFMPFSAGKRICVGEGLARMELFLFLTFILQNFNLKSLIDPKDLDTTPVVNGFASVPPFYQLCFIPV

[16] = molecular target: Cytochrome P450 3A4 (Homo sapiens, UniProt P08684); test: Inhibition of CYP3A4 in human liver microsomes using midazolam as substrate; format: ADME, Microsome
Sequence of Cytochrome P450 3A4 (P08684 whole entry): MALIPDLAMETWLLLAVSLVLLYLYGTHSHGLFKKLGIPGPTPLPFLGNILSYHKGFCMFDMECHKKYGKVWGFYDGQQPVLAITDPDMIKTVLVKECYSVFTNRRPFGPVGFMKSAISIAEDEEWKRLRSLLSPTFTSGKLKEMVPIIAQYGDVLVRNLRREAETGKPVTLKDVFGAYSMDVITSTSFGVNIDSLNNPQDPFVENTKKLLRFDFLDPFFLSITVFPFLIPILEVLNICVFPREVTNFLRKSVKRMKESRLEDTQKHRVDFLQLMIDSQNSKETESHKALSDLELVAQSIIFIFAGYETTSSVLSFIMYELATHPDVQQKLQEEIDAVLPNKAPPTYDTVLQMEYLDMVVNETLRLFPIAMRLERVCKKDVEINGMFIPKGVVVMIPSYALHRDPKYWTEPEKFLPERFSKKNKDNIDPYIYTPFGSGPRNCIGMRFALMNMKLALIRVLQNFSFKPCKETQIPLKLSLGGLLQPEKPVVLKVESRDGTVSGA

[17] = system: Enterococcus faecium; test: Release of NO in drug-resistant Enterococcus faecium NCTC 7171 assessed as NO generation at 100 uM measured upto 2 hrs by Griess assay; format: functional, organism-based
[18] = Metabolic stability in human liver microsomes assessed as half life by LC-MS/MS analysis; format: ADME, Microsome
[19] = molecular target: Cytochrome P450 2C9 (Homo sapiens, UniProt P11712); test: Inhibition of CYP2C9 in human liver microsomes using diclofenac as substrate; format: ADME, Microsome
Sequence of Cytochrome P450 2C9 (P11712 whole entry): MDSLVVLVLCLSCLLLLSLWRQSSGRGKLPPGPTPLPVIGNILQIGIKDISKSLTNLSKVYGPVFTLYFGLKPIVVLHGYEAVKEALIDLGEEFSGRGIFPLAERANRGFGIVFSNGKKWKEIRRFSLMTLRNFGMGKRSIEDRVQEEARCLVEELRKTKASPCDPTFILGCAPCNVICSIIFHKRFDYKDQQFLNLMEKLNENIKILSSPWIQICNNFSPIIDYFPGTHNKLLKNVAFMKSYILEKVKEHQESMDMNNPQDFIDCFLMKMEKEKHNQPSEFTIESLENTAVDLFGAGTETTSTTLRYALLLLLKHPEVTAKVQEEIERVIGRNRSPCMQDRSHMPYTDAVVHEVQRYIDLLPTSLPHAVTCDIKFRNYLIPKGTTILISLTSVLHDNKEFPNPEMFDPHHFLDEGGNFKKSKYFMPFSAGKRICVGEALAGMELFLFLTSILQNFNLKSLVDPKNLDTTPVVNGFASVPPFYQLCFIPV

[20] = molecular target: Cytochrome P450 2D6 (Homo sapiens, UniProt P10635); test: Inhibition of CYP2D6 in human liver microsomes using dextromethorphan as substrate; format: ADME, Microsome
Sequence of Cytochrome P450 2D6 (P10635 whole entry): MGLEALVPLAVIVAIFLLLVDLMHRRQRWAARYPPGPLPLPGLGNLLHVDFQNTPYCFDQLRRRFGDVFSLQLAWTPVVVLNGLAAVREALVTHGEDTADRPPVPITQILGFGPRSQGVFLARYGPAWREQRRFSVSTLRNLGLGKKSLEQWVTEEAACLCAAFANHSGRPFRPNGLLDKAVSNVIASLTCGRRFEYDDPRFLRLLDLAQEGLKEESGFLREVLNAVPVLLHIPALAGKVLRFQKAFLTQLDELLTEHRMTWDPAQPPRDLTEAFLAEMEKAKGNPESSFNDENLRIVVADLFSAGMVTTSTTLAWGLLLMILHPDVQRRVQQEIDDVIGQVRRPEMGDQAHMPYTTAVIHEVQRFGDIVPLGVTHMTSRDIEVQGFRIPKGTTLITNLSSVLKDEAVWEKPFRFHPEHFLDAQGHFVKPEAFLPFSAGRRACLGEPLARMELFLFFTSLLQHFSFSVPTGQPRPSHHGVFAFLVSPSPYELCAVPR

[21] = AUC (0 to 5 hrs) in CD-1 mouse at 25 mg/kg, po by LC-MS/MS analysis; format: ADME, organism-based; details: in vivo; for AUC(0-t): CD-1, mouse
[22] = system: Enterococcus faecium; test: Bactericidal activity against drug-resistant Enterococcus faecium NCTC 7171 assessed as invisible pellets in media measured after 2 days incubation; format: functional; details: NCTC 7171, 48 h, time 2 day
[23] = system: Klebsiella pneumoniae; test: Anti-bacterial activity against Klebsiella pneumonia BAA 2146 assessed as invisible pellets in media measured after overnight incubation; format: functional
[24] = system: Acinetobacter baumannii; test: Anti-bacterial activity against Acinetobacter baumannii ATCC 19606 assessed as invisible pellets in media measured after overnight incubation; format: functional
[25] = system: Pseudomonas aeruginosa; test: Anti-bacterial activity against Pseudomonas aeruginosa HER 1018 assessed as invisible pellets in media measured after overnight incubation; format: functional
[26] = system: Staphylococcus aureus; test: Anti-bacterial activity against Staphylococcus aureus ATCC 43300 assessed as invisible pellets in media measured after overnight incubation; format: functional

Row | SMILES | CC50 [1] [µM] | MIC [2] [µM] | further results
1 | O=C(NCCNC(=O)c1cc2ccccc2s1)c1ccc([N+](=O)[O-])o1 | 139 | > 140 | –
2 | O=C(NNC(=O)c1nc2ccccc2s1)c1ccc([N+](=O)[O-])o1 | 150 | 30 (≈ 9.97 µg/mL) | –
3 | CC(C)(NC(=O)c1ccc([N+](=O)[O-])o1)c1cc2ccccc2s1 | 38 | > 150 | –
4 | O=C(NNC(=O)c1cc2cc(Cl)ccc2s1)c1ccc([N+](=O)[O-])o1 | > 137 | > 137 | –
5 | O=C(NNC(=O)c1cc2c(Cl)cccc2s1)c1ccc([N+](=O)[O-])o1 | 136 | 34 (≈ 12.4 µg/mL) | –
6 | O=C(NNC(=O)c1sc2cccc(Cl)c2c1Cl)c1ccc([N+](=O)[O-])o1 | > 124 | 7.8 (≈ 3.12 µg/mL) | –
7 | O=C(c1ccc([N+](=O)[O-])o1)N1CCN(C(=O)c2cc3ccccc3s2)CC1 | 16 | > 130 | –
8 | O=[N+]([O-])c1ccc(-c2nnc(-c3cc4ccccc4s3)o2)o1 | 160 | > 160 | –
9 | O=C(NNC(=O)c1sc2cc(F)ccc2c1Cl)c1ccc([N+](=O)[O-])o1 | > 130 | > 130 | –
10 | O=C(NNC(=O)c1sc2cc(Cl)ccc2c1Cl)c1ccc([N+](=O)[O-])s1 | > 120 | > 120 | –
11 | O=C(NNC(=O)c1cc2ccc(Cl)cc2s1)c1ccc([N+](=O)[O-])o1 | > 136 | > 136 | –
12 | CCCCCCCCCC(=O)N[C@@H](Cc1c[nH]c2ccccc12)C(=O)N[C@H](CC(N)=O)C(=O)N[C@@H](CC(=O)O)C(=O)N[C@@H]1C(=O)NCC(=O)N[C@@H](CCCN)C(=O)N[C@@H](CC(=O)O)C(=O)N[C@H](C)C(=O)N[C@@H](CC(=O)O)C(=O)NCC(=O)N[C@H](CO)C(=O)N[C@@H]([C@H](C)CC(=O)O)C(=O)N[C@@H](CC(=O)c2ccccc2N)C(=O)O[C@@H]1C | – | 10 (≈ 16.2 µg/mL) | –
13 | O=C(NNC(=O)c1cc2cccc(Cl)c2s1)c1ccc([N+](=O)[O-])o1 | 68 | 4.2 (≈ 1.54 µg/mL) | –
14 | CN[C@H](CC(C)C)C(=O)N[C@H]1C(=O)N[C@@H](CC(N)=O)C(=O)N[C@H]2C(=O)N[C@H]3C(=O)N[C@H](C(=O)N[C@H](C(=O)O)c4cc(O)cc(O)c4-c4cc3ccc4O)[C@H](O)c3ccc(c(Cl)c3)Oc3cc2cc(c3O[C@@H]2O[C@H](CO)[C@@H](O)[C@H](O)[C@H]2O[C@H]2C[C@](C)(N)[C@H](O)[C@H](C)O2)Oc2ccc(cc2Cl)[C@H]1O [VANCOMYCIN] | – | 1.1 (≈ 1.59 µg/mL) | MIC [3]: ≥ 30 µM; Activity [4]: Active
15 | O=C(N/N=C/c1cc2ccccc2s1)c1ccc([N+](=O)[O-])o1 | 39 | > 158 | –
16 | O=C(NNC(=O)c1cc2cccnc2s1)c1ccc([N+](=O)[O-])o1 | 150 | > 100 | –
17 | O=C(NNC(=O)c1cc2c(Cl)cc(Cl)cc2s1)c1ccc([N+](=O)[O-])o1 | > 124 | 62 (≈ 24.8 µg/mL) | –

Row | SMILES | CC50 [1] [µM] | MIC [2] [µM] | further results
18 | C[C@@H](O)[C@H]1C(=O)N2C(C(=O)O)=C(S[C@@H]3CN[C@H](C(=O)N(C)C)C3)[C@H](C)[C@H]12 [MEROPENEM] | – | 19 (≈ 7.29 µg/mL) | –
19 | CC(=O)NC[C@H]1CN(c2ccc(N3CCOCC3)c(F)c2)C(=O)O1 [LINEZOLID] | – | 4.6 (≈ 1.55 µg/mL) | MIC [3]: 4.7 µM (≈ 1.59 µg/mL)
20 | O=C(NNC(=O)c1ccc([N+](=O)[O-])o1)c1cc2ccccc2[nH]1 | > 160 | > 100 | –
21 | O=C(NNC(=O)c1sc2cc(C(F)(F)F)ccc2c1Cl)c1ccc([N+](=O)[O-])o1 | 110 | 3.6 (≈ 1.56 µg/mL) | –
22 | O=C(NNC(=O)c1sc2cc(Cl)ccc2c1Cl)c1ccc([N+](=O)[O-])o1 | > 120 | 1.9 (≈ 0.76 µg/mL) | Activity [5]: Non-Toxic; Stability [6]: 89.2%; IC50 [7]: > 50 µM; Activity [8]: Active; fraction unbound at 5 h, 5 µM [9]: 0.0001; MIC [3]: 1.9 µM (≈ 0.76 µg/mL); F [10]: 47%; solubility kinetic at 4 h [11]: 0.35 µM (≈ 0.14 µg/mL); Stability [12]: 76.6%; fraction unbound at 5 h, 5 µM [13]: 0.007; t1/2 [14]: 16.6 min; IC50 [15]: > 50 µM; IC50 [16]: > 50 µM; Activity [17]: inactive; t1/2 [18]: 85.6 min; IC50 [19]: > 50 µM; IC50 [20]: > 50 µM; AUC ([21]; mouse, po, 25 mg/kg): 75175 ng·h/mL
23 | O=C(NNC(=O)c1sc2cc(Cl)ccc2c1Cl)c1ccc(Cl)o1 | 128 | > 128 | –
24 | O=C(NNC(=O)c1sc2c(Cl)cccc2c1Cl)c1ccc([N+](=O)[O-])o1 | > 120 | 62 (≈ 24.8 µg/mL) | –
25 | O=C(NNC(=O)c1sc2ccc(Cl)cc2c1Cl)c1ccc([N+](=O)[O-])o1 | > 124 | > 124 | –
26 | NC[C@H]1O[C@H](O[C@H]2[C@H](O)[C@@H](O[C@H]3O[C@H](CO)[C@@H](O)[C@H](N)[C@H]3O)[C@H](N)C[C@@H]2N)[C@H](O)[C@@H](O)[C@@H]1O [KANAMYCIN] | – | > 24 | –
27 | O=C(NNC(=O)c1cc2cc(Cl)cc(Cl)c2s1)c1ccc([N+](=O)[O-])o1 | 124 | 0.75 (≈ 0.3 µg/mL) | solubility kinetic at 4 h [11]: 0.55 µM (≈ 0.22 µg/mL); t1/2 [14]: 13.3 min; AUC(0-t) [21]: 111000 ng·h/mL
28 | O=C(NNC(=O)c1sc2cc(Cl)ccc2c1Cl)c1ccc(Cl)s1 | 123 | > 123 | –
29 | O=C(NNC(=O)c1csc2ccccc12)c1ccc([N+](=O)[O-])o1 | 75 | 15 (≈ 4.97 µg/mL) | –
30 | O=C(NNC(=O)c1cc2c(s1)CCCC2)c1ccc([N+](=O)[O-])o1 | 37 | 37 (≈ 12.4 µg/mL) | –
31 | O=C(NNC(=O)c1cc2ccccc2o1)c1ccc([N+](=O)[O-])o1 | 39 | > 100 | –
32 | O=C(NNC(=O)c1sc2ccccc2c1Cl)c1ccc([N+](=O)[O-])o1 | 68 | 17 (≈ 6.22 µg/mL) | –
33 | O=C(NNC(=O)c1cc2cc(C(F)(F)F)cc(Cl)c2s1)c1ccc([N+](=O)[O-])o1 | > 110 | 1.8 (≈ 0.781 µg/mL) | MBC [22]: 7.7 µM (≈ 3.34 µg/mL); MIC [23]: > 120 µM; solubility kinetic at 4 h [11]: 0.06 µM (≈ 0.026 µg/mL); MIC [24]: > 120 µM; MIC [25]: > 120 µM; t1/2 [14]: 57.8 min; AUC(0-t) [21]: 43800 ng·h/mL; MIC [26]: 16 µM (≈ 6.94 µg/mL)
34 | O=C(NNC(=O)c1cc2ccccc2s1)c1ccc([N+](=O)[O-])o1 | – | > 174 | MIC [23]: > 150 µM; solubility kinetic at 4 h [11]: 103 µM (≈ 34.1 µg/mL); MIC [24]: > 150 µM; MIC [25]: > 150 µM; t1/2 [14]: 3.3 min; AUC(0-t) [21]: 1280 ng·h/mL; MIC [26]: > 150 µM
